# In PubChem BioAssay AID1601:
# Records with an inconclusive call do not appear. Where a SMILES comes first, the peptide text is derived from it.
# System: mutant SOD1 cell death rescue, 1 uM
# Test: suppressors of mutant SOD1 cell death (AID 1601)
row,Structure (SMILES),EC50 [µM]
1,CC(C)NCC(O)c1ccc(O)c(O)c1 (centres undefined),1
2,CC(C)=CCC/C(C)=C/CO,1.2
3,CC(=O)NS(=O)(=O)c1ccc(N)cc1,2.1
4,CC[C@H]1OC(=O)[C@H](C)[C@@H](O[C@H]2C[C@@](C)(OC)[C@@H](O)[C@H](C)O2)[C@H](C)[C@@H](O[C@@H]2O[C@H](C)C[C@H](N(C)C)[C@H]2O)[C@](C)(O)C[C@@H](C)CN(C)[C@H](C)[C@@H](O)[C@]1(C)O,0.9
5,CC[C@@H](CO)NCCN[C@@H](CC)CO,2.9
6,CCCC(CCC)C(=O)O,0.7
7,NCCCCC(N)C(=O)NC(Cc1c[nH]c2ccccc12)C(=O)NC(CCCCN)C(=O)O (stereo not drawn) (H-Lys-Trp-Lys-OH; configuration not given here),8.6
8,Cc1cc(C(C)(C)CC(C)(C)C)ccc1OCCOCC[N+](C)(C)Cc1ccccc1,0.1
9,CC(C)COCC(CN(Cc1ccccc1)c1ccccc1)N1CCCC1 (centres undefined),1
